Results: PubChem BioAssay (NCI)
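The compound was tested at five concentrations on cells cultured in 96-well plates, with a 48-hour exposure period. At the GI50, growth is halved. The concentration for full growth arrest is given as TGI.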

Columns and labels:
Assay in all cases: growth of human tumour cells (NCI), 48 h; in the data active = GI50 below about 0.43 µM; inactive = the rest
786-0 renal = test system: 786-0 renal
A498 renal = test system: A498 renal
A549 NSCLC = test system: A549 NSCLC
ACHN renal = test system: ACHN renal
BT-549 breast = test system: BT-549 breast
CAKI-1 renal = test system: CAKI-1 renal
CCRF-CEM leukemia = test system: CCRF-CEM leukemia
COLO 205 colon = test system: COLO 205 colon
DU-145 prostate = test system: DU-145 prostate
EKVX NSCLC = test system: EKVX NSCLC
HCC-2998 colon = test system: HCC-2998 colon
HCT-116 colon = test system: HCT-116 colon
HCT-15 colon = test system: HCT-15 colon
HL-60(TB) leukemia = test system: HL-60(TB) leukemia
HOP-62 NSCLC = test system: HOP-62 NSCLC
HOP-92 NSCLC = test system: HOP-92 NSCLC
HS 578T breast = test system: HS 578T breast
HT29 colon = test system: HT29 colon
IGROV1 ovarian = test system: IGROV1 ovarian
K-562 leukemia = test system: K-562 leukemia
KM12 colon = test system: KM12 colon
LOX IMVI melanoma = test system: LOX IMVI melanoma
M14 melanoma = test system: M14 melanoma
MALME-3M melanoma = test system: MALME-3M melanoma
MCF7 breast = test system: MCF7 breast
MDA-MB-231 breast = test system: MDA-MB-231 breast
MDA-MB-435 = test system: MDA-MB-435
MOLT-4 leukemia = test system: MOLT-4 leukemia
NCI-H226 lung = test system: NCI-H226 lung
NCI-H460 lung = test system: NCI-H460 lung
NCI-H522 lung = test system: NCI-H522 lung
NCI/ADR-RES ovarian = test system: NCI/ADR-RES ovarian
OVCAR-3 ovarian = test system: OVCAR-3 ovarian
OVCAR-4 ovarian = test system: OVCAR-4 ovarian
OVCAR-5 ovarian = test system: OVCAR-5 ovarian
OVCAR-8 ovarian = test system: OVCAR-8 ovarian
PC-3 prostate = test system: PC-3 prostate
RPMI-8226 leukemia = test system: RPMI-8226 leukemia
RXF 393 renal = test system: RXF 393 renal
SF-268 CNS = test system: SF-268 CNS
SF-295 CNS = test system: SF-295 CNS
SF-539 CNS = test system: SF-539 CNS
SK-MEL-2 melanoma = test system: SK-MEL-2 melanoma
SK-MEL-28 melanoma = test system: SK-MEL-28 melanoma
SK-MEL-5 melanoma = test system: SK-MEL-5 melanoma
SK-OV-3 ovarian = test system: SK-OV-3 ovarian
SN12C renal = test system: SN12C renal
SNB-19 CNS = test system: SNB-19 CNS
SNB-75 CNS = test system: SNB-75 CNS
SR leukemia = test system: SR leukemia
SW-620 colon = test system: SW-620 colon
T-47D breast = test system: T-47D breast
TK-10 renal = test system: TK-10 renal
U251 CNS = test system: U251 CNS
UACC-257 melanoma = test system: UACC-257 melanoma
UACC-62 melanoma = test system: UACC-62 melanoma
UO-31 renal = test system: UO-31 renal

Cc1ccc(-c2nc(C(Cl)Cl)nc3cc(-c4ccccc4)nn23)cc1
96.7 µM: TGI (MOLT-4 leukemia)
29.7 µM: TGI (DU-145 prostate)
24 µM: TGI (RXF 393 renal)
42.8 µM: TGI (NCI-H522 lung)
inactive: GI50 (786-0 renal) > 100 µM | GI50 (A498 renal) 17.4 µM | GI50 (A549 NSCLC) 10 µM | GI50 (ACHN renal) 7.54 µM | GI50 (BT-549 breast) 30.7 µM | GI50 (CAKI-1 renal) 16.2 µM | GI50 (CCRF-CEM leukemia) 47.7 µM | GI50 (COLO 205 colon) 10.1 µM | GI50 (DU-145 prostate) 4.21 µM | GI50 (EKVX NSCLC) 17.8 µM | GI50 (HCC-2998 colon) 6.05 µM | GI50 (HCT-116 colon) 15.6 µM | GI50 (HCT-15 colon) 10.5 µM | GI50 (HL-60(TB) leukemia) 6.5 µM | GI50 (HOP-62 NSCLC) 16.5 µM | GI50 (HOP-92 NSCLC) 23.9 µM | GI50 (HS 578T breast) 56.9 µM | GI50 (HT29 colon) 7.41 µM | GI50 (IGROV1 ovarian) 36.3 µM | GI50 (K-562 leukemia) 22.4 µM | GI50 (KM12 colon) 17.8 µM | GI50 (LOX IMVI melanoma) 22.4 µM | GI50 (M14 melanoma) 20.6 µM | GI50 (MALME-3M melanoma) 23.3 µM | GI50 (MCF7 breast) 18.1 µM | GI50 (MDA-MB-231 breast) 20.5 µM | GI50 (MDA-MB-435) 25.3 µM | GI50 (MOLT-4 leukemia) 18.2 µM | GI50 (NCI-H226 lung) 75.2 µM | GI50 (NCI-H460 lung) 7.26 µM | GI50 (NCI-H522 lung) 14.5 µM | GI50 (NCI/ADR-RES ovarian) 13.5 µM | GI50 (OVCAR-3 ovarian) 13.4 µM | GI50 (OVCAR-4 ovarian) 17.9 µM | GI50 (OVCAR-5 ovarian) 24.2 µM | GI50 (OVCAR-8 ovarian) 15.3 µM | GI50 (PC-3 prostate) 23.7 µM | GI50 (RPMI-8226 leukemia) 35.9 µM | GI50 (RXF 393 renal) 10.6 µM | GI50 (SF-268 CNS) 24.6 µM | GI50 (SF-295 CNS) 24 µM | GI50 (SF-539 CNS) 61.1 µM | GI50 (SK-MEL-2 melanoma) > 100 µM | GI50 (SK-MEL-28 melanoma) 27.2 µM | GI50 (SK-MEL-5 melanoma) > 100 µM | GI50 (SK-OV-3 ovarian) 20.9 µM | GI50 (SN12C renal) 98.9 µM | GI50 (SNB-19 CNS) 19.7 µM | GI50 (SNB-75 CNS) > 100 µM | GI50 (SR leukemia) 9.91 µM | GI50 (SW-620 colon) 9.97 µM | GI50 (T-47D breast) 28.3 µM | GI50 (TK-10 renal) 33.3 µM | GI50 (U251 CNS) 9.5 µM | GI50 (UACC-257 melanoma) 35.3 µM | GI50 (UACC-62 melanoma) 81.8 µM | GI50 (UO-31 renal) > 100 µM
35.2 µM: TGI (HT29 colon)
90.1 µM: TGI (OVCAR-8 ovarian)
31.8 µM: TGI (ACHN renal)
62.3 µM: TGI (HOP-62 NSCLC)
58.7 µM: TGI (SK-OV-3 ovarian)
55.8 µM: TGI (SW-620 colon)
30.3 µM: TGI (NCI-H460 lung)
72.3 µM: TGI (HCT-15 colon)
74.6 µM: TGI (SK-MEL-28 melanoma)
98 µM: TGI (MDA-MB-435)
66.4 µM: TGI (KM12 colon)
50.2 µM: TGI (M14 melanoma)
57.8 µM: TGI (EKVX NSCLC)
73.1 µM: TGI (OVCAR-4 ovarian)
> 100 µM: TGI (786-0 renal) | TGI (BT-549 breast) | TGI (CCRF-CEM leukemia) | TGI (HCT-116 colon) | TGI (HL-60(TB) leukemia) | TGI (HS 578T breast) | TGI (IGROV1 ovarian) | TGI (K-562 leukemia) | TGI (LOX IMVI melanoma) | TGI (MCF7 breast) | TGI (MDA-MB-231 breast) | TGI (NCI-H226 lung) | TGI (NCI/ADR-RES ovarian) | TGI (OVCAR-5 ovarian) | TGI (PC-3 prostate) | TGI (RPMI-8226 leukemia) | TGI (SF-268 CNS) | TGI (SF-539 CNS) | TGI (SK-MEL-2 melanoma) | TGI (SK-MEL-5 melanoma) | TGI (SN12C renal) | TGI (SNB-19 CNS) | TGI (SNB-75 CNS) | TGI (SR leukemia) | TGI (T-47D breast) | TGI (TK-10 renal) | TGI (UACC-257 melanoma) | TGI (UACC-62 melanoma) | TGI (UO-31 renal)
71.2 µM: TGI (SF-295 CNS)
28.1 µM: TGI (A549 NSCLC)
34.1 µM: TGI (U251 CNS)
23.4 µM: TGI (COLO 205 colon)
20 µM: TGI (HCC-2998 colon)
58.3 µM: TGI (CAKI-1 renal)
38.9 µM: TGI (A498 renal)
58.9 µM: TGI (MALME-3M melanoma)
79.4 µM: TGI (HOP-92 NSCLC)
31.5 µM: TGI (OVCAR-3 ovarian)
